According to ChEMBL document CHEMBL1201862, “PubChem BioAssay data set” (2004):
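Where inhibition never reached the appropriate level, the endpoint shown equals the highest concentration tested. Otherwise, values were interpolated linearly from a five-concentration, 48-hour dose response in 96-well plates. Here, GI50 denotes the concentration required for 50% inhibition of growth.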 Active and inactive are the calls of the source. Rule as the data show it: active = GI50 up to about 1.1 µM and inactive = higher.

Tests used:
Assay in all cases: inhibition of tumour cell growth, NCI panel, 48 h
[1] = system: SN12C
[2] = system: OVCAR-5
[3] = system: SK-OV-3
[4] = system: SF-268
[5] = system: HCT-116
[6] = system: PC-3
[7] = system: TK-10
[8] = system: UACC-62
[9] = system: MCF7
[10] = system: ACHN
[11] = system: NCI-H226
[12] = system: SK-MEL-5
[13] = system: MDA-MB-435
[14] = system: HT-29
[15] = system: UO-31
[16] = system: NCI-H460
[17] = system: CCRF-CEM
[18] = system: Hs-578T
[19] = system: RPMI-8226
[20] = system: A498

Measured: GI50

Cn1c(S)nnc1-c1csc(-c2ccc(Cl)cc2)n1
inactive: [1] 38.8 µM | [2] 34.4 µM | [3] 17.6 µM | [4] 29.3 µM | [5] 17.7 µM | [6] 35.7 µM | [7] 20.4 µM | [8] 23.9 µM | [9] 37.2 µM | [10] 18.7 µM | [11] 23.1 µM | [12] > 100 µM | [13] > 100 µM | [14] > 100 µM | [15] 22.5 µM | [16] 21.3 µM | [17] > 100 µM | [18] 29.7 µM

CCCCN(CCCC)C(=C(C(Cl)=C(Cl)Cl)[N+](=O)[O-])N(CCCC)CCCC
inactive: [1] > 100 µM | [2] 85.5 µM | [3] > 100 µM | [4] > 100 µM | [5] 67.9 µM | [6] 57 µM | [19] 18.7 µM | [7] > 100 µM | [8] 87.3 µM | [10] > 100 µM | [11] > 100 µM | [12] > 100 µM | [13] > 100 µM | [20] > 100 µM | [15] > 100 µM | [16] 89.5 µM

Cc1ccc(/C=c2\c(=O)[nH]c3nc4ccccc4c(=O)n23)cc1
inactive: [1] 28.8 µM | [2] > 100 µM | [3] > 100 µM | [4] 45.5 µM | [5] 28.5 µM | [6] 55.5 µM | [19] 22.9 µM | [7] > 100 µM | [8] 33.5 µM | [9] 39.8 µM | [10] > 100 µM | [13] 24.9 µM | [15] 57.5 µM | [17] 30.7 µM | [18] 31 µM

COc1ccccc1C#C/C=C\C#Cc1ccccc1C#N
inactive: [1] 26 µM | [2] 39.2 µM | [3] 39.8 µM | [4] 19.4 µM | [5] 7.35 µM | [6] 13.2 µM | [7] 20.7 µM | [8] 23.7 µM | [9] 4.61 µM | [10] 13.9 µM | [12] 2.09 µM | [13] 3.24 µM | [14] 6.28 µM | [15] 10.9 µM | [16] 13.3 µM | [17] 5.26 µM | [18] 25.9 µM

C[Si](C)(C)/C=C/CN1C(=O)CCC1O (stereo unspecified)
inactive: [1] > 100 µM | [2] > 100 µM | [3] > 100 µM | [4] > 100 µM | [5] > 100 µM | [19] > 100 µM | [7] > 100 µM | [8] > 100 µM | [10] > 100 µM | [11] > 100 µM | [12] > 100 µM | [14] > 100 µM | [20] > 100 µM | [15] > 100 µM | [16] > 100 µM | [17] > 100 µM

NC(=S)SC1=NC(=O)C2(NN1)c1ccccc1-c1ccccc12
inactive: [1] > 10 µM | [3] > 10 µM | [4] > 10 µM | [5] > 10 µM | [6] > 10 µM | [19] 5.12 µM | [7] > 10 µM | [8] > 10 µM | [9] > 10 µM | [10] 5.36 µM | [11] > 10 µM | [12] 6.12 µM | [13] > 10 µM | [14] > 10 µM | [15] 9.1 µM | [16] 8.59 µM | [17] > 10 µM | [18] > 10 µM

O=C1NNC2(C(=O)N1)c1ccccc1-c1ccccc12
inactive: [1] > 10 µM | [3] > 10 µM | [4] > 10 µM | [5] > 10 µM | [6] > 10 µM | [19] > 10 µM | [7] > 10 µM | [8] > 10 µM | [9] > 10 µM | [10] > 10 µM | [11] > 10 µM | [12] > 10 µM | [13] > 10 µM | [14] > 10 µM | [15] > 10 µM | [16] > 10 µM | [17] > 10 µM | [18] > 10 µM

c1cc2sc1CSCCSCCSC2
inactive: [1] > 100 µM | [2] > 100 µM | [3] > 100 µM | [4] > 100 µM | [5] > 100 µM | [6] > 100 µM | [7] > 100 µM | [8] > 100 µM | [9] > 100 µM | [12] > 100 µM | [13] > 100 µM | [14] > 100 µM | [15] > 100 µM | [16] > 100 µM | [17] > 100 µM

COc1ccc(OC)c(/C=C2/C(=O)N/C(=N\C(C)=O)N2C)c1
inactive: [1] > 100 µM | [2] > 100 µM | [3] > 100 µM | [4] > 100 µM | [5] > 100 µM | [6] > 100 µM | [7] > 100 µM | [8] > 100 µM | [9] > 100 µM | [10] > 100 µM | [11] > 100 µM | [12] > 100 µM | [13] > 100 µM | [14] > 100 µM | [15] > 100 µM | [16] > 100 µM | [17] > 100 µM | [18] > 100 µM

COc1cccc(C(C#N)NNC(=O)c2c(Cl)c(Cl)c(Cl)c(Cl)c2-c2nc3cc(C(=O)c4ccccc4)ccc3[nH]2)c1O (stereo unspecified)
inactive: [1] 2.7 µM | [2] 18.6 µM | [3] 3.03 µM | [5] 4 µM | [6] 3.62 µM | [19] 3.55 µM | [7] 7.71 µM | [9] 3.22 µM | [10] 6.44 µM | [11] 3 µM | [12] 2.71 µM | [13] 1.81 µM | [14] 4.91 µM | [20] 2.05 µM | [15] 6.84 µM | [17] 3.2 µM

CC(=O)C1C(=O)C(=O)N(c2ccc([N+](=O)[O-])cc2Cl)C1=O (stereo unspecified)
inactive: [1] > 100 µM | [2] > 100 µM | [3] > 100 µM | [4] > 100 µM | [5] > 100 µM | [6] 82.2 µM | [7] > 100 µM | [8] > 100 µM | [9] > 100 µM | [10] > 100 µM | [11] > 100 µM | [12] > 100 µM | [13] > 100 µM | [14] > 100 µM | [15] 56.1 µM | [16] > 100 µM | [17] > 100 µM | [18] > 100 µM

O=[N+]([O-])c1nccn1CC1OC(n2ccnc2[N+](=O)[O-])C(O)C(O)C1O (stereo unspecified)
inactive: [2] > 100 µM | [5] > 100 µM | [6] > 100 µM | [19] > 100 µM | [7] > 100 µM | [8] > 100 µM | [9] > 100 µM | [10] > 100 µM | [11] > 100 µM | [12] > 100 µM | [14] > 100 µM | [20] > 100 µM | [15] > 100 µM | [16] > 100 µM | [17] > 100 µM | [18] > 100 µM
